Assay results published in article PMC8631740 (Nano Letters, 2021).

Target: PDZ-mNG (Homo sapiens, UniProt Q96RT1)
Test: Binding kinetics of PDZ-mNG to peptDTWV in fixed COS7 cells
Assay type: cell-based
Details: PFA or PFA/GA fixation, compared with kinetics at nanoparticles; result in words

effect of fixation on peptDTWV/PDZ-mNG interaction: not affected by fixation
Substance: RGSIDTWV-cooh [peptDTWV]
